Literature values in patent EP1694724B1, “pH SENSITIVE POLYMER AND PROCESS FOR PREPARATION THEREOF” (Council of Scientific and Industrial Research, priority 2003, dated 2005).

Details: humans

- bioavailability: 32-50%
SMILES: CO/N=C(\C(=O)N[C@@H]1C(=O)N2C(C(=O)OC(C)OC(C)=O)=C(COC(N)=O)CS[C@H]12)c1ccco1 (stereo partly shown) [Cefuroxime axetil, cefuroxime axetil]
